Where two headings read alike, the source gives them in different places.
How the values were obtained:
Chrom Log D pH7.4 = format: physicochemical
Method: This assay was conducted as previously described.[11]

THP-1 cells = experiment: THP-1 host cell toxicity readout of the intramacrophage assay; format: cell-based, human; conditions: for THP-1 (pEC50): human THP-1 host cells; for IC50: Homo sapiens
Method: (§1) This assay was conducted as previously described,[8] except for compound exposure time, which was 96 h instead of 72 h.

[1] = Mouse liver microsomal intrinsic clearance; format: in vitro ADME; conditions: for Cli (mouse liver microsomal intrinsic clearance): mouse liver microsomes; for Cli (mouse, ml/min/g): supplement sheet
Method: These assays were conducted as previously described.[23]

L. donovani amastigotes = experiment: Intramacrophage L. donovani assay (Ld InMac); format: cell-based, Leishmania donovani; conditions: for Ld InMac (pEC50) / EC50: L. donovani amastigotes in THP-1 cells, 96 h compound exposure; for IC50 / EC50: Leishmania donovani; for IC50: read-out: LdInMac pIC50 (converted); for EC50: THP-1, 96 h, read-out: Ld InMac (pEC50) (converted); for loss in potency compared to 1: Ld InMac
Method: as §1

[2] = THP-1, supplement sheet, read-out: THP1 pIC50 (converted)

| Compound | IC50 (THP-1 cells; [2]) [µM] | IC50 (L. donovani amastigotes; supplement sheet) [µM] | also measured |
| --- | --- | --- | --- |
| N-(Cyclopropylmethyl)-8-hydroxy-1,6-naphthyridine-7-carboxamide [Compound 29] |  |  | ChromLogDpH7.4 (Chrom Log D pH7.4; pH 7.4): 3.3; ChromLogD (Chrom Log D pH7.4; supplement sheet): 3.3; THP-1 (pEC50) (THP-1 cells): <4.3; THP1 pIC50 (THP-1 cells; supplement sheet): <4.3; Cli (mouse liver microsomal intrinsic clearance) [1]: 13 mL/min/g; Cli (mouse, ml/min/g) [1]: 13 mL/min/g; Ld InMac (pEC50) (L. donovani amastigotes): 5.9; LdInMac pIC50 (L. donovani amastigotes; supplement sheet): 5.9 |
| COc1ccccc1-c1nc(-c2nc(C)n[nH]2)c(OC)c2ncccc12 [Compound 18] | > 50.1 | 2.51 |  |
| O=C(NCc1ccc(Cl)cc1)c1ccc2cccnc2c1O [Compound 20] | 6.31 | 15.8 | THP-1 (pEC50) (THP-1 cells): toxic to the host THP-1 cells |
| COc1ccc(CNC(=O)c2nn(C)c3cccnc3c2=O)cc1 [Compound 23, N-(4-Methoxybenzyl)-1-methyl-4-oxo-1,4-dihydropyrido[3,2-c]pyridazine-3-carboxamide] | > 50.1 | > 50.1 |  |
| COc1ccccc1-c1nc(-c2nnc(C)o2)c(O)c2ncccc12 [Compound 19, 5-(2-Methoxyphenyl)-7-(5-methyl-1,3,4-oxadiazol-2-yl)-1,6-naphthyridin-8-ol] | > 50.1 | > 50.1 | Cli (mouse liver microsomal intrinsic clearance) [1]: <0.5 mL/min/g; Cli (mouse, ml/min/g) [1]: <0.5 mL/min/g |
| Oc1c(-c2nnc(Cc3ccc(Cl)cc3)[nH]2)ncc2cccnc12 [Compound 1] | 31.6 | 0.316 | EC50 (L. donovani amastigotes): 0.316 µM; selectivity over the human THP-1 cell line (L. donovani amastigotes; parasite vs THP-1 pEC50): ~100 fold |
| Cc1n[nH]c(-c2cc3ncccc3c(-c3ccccc3)n2)n1 [Compound 17] | > 50.1 | > 50.1 |  |
| O=C1CCCN1Cc1n[nH]c(-c2ncc3cccnc3c2O)n1 [Compound 6, 1-((5-(8-Hydroxy-1,6-naphthyridin-7-yl)-1H-1,2,4-triazol-3-yl)methyl)pyrrolidin-2-one] | > 50.1 | > 50.1 | Cli (mouse liver microsomal intrinsic clearance) [1]: <0.5 mL/min/g; Cli (mouse, ml/min/g) [1]: <0.5 mL/min/g |
| Oc1c(-c2nc(C(O)c3ccccc3)n[nH]2)ncc2cccnc12 (stereo not drawn) [Compound 3, 7-(3-(Hydroxy(phenyl)methyl)-1H-1,2,4-triazol-5-yl)-1,6-naphthyridin-8-ol] | > 50.1 | 5.01 | loss in potency compared to 1 (L. donovani amastigotes): ~10 fold |
| Cc1n[nH]c(-c2ncc3cccnc3c2O)n1 [Compound 4, 7-(3-Methyl-1H-1,2,4-triazol-5-yl)-1,6-naphthyridin-8-ol] | > 50.1 | > 50.1 |  |
| Oc1c(-c2nnc(Cc3ccc(F)cc3)[nH]2)ncc2cccnc12 [Compound 2] | 39.8 | 2.51 | loss in potency compared to 1 (L. donovani amastigotes): ~10 fold |
| COc1ccc(CNC(=O)c2ncc3cccnc3c2O)cc1 [Compound 27, 8-Hydroxy-N-(4-methoxybenzyl)-1,6-naphthyridine-7-carboxamide] | > 50.1 | 0.501 | Ld InMac (pEC50) (L. donovani amastigotes): 6.3; EC50 (L. donovani amastigotes): < 1 µM |
| Oc1c(-c2nc(CN3CCOCC3)n[nH]2)ncc2cccnc12 [Compound 5, 7-(3-(Morpholinomethyl)-1H-1,2,4-triazol-5-yl)-1,6-naphthyridin-8-ol] | > 50.1 | 31.6 | EC50 (L. donovani amastigotes): 31.6 µM |
| Cc1nnc(C(=O)NC(C)(C)c2nc(C(=O)NCc3ccc(F)cc3)c(O)c(=O)n2C)o1 [Compound 24, Raltegravir, reference compound] |  |  | IC50 (THP-1 cells; THP-1, read-out: THP1 pIC50 (converted)): > 50.1 µM; IC50 (L. donovani amastigotes): > 50.1 µM |
| O=C(NCc1ccc(Cl)cc1)c1ncc2ccccc2c1O [Compound 21] | > 50.1 | > 50.1 |  |
| O=C(NCc1ccc(Cl)cc1)c1ncc2cccnc2c1O [Compound 7, N-(4-Chlorobenzyl)-8-hydroxy-1,6-naphthyridine-7-carboxamide] | > 50.1 | 0.501 | EC50 (L. donovani amastigotes): 0.501 µM |

Reference: article PMC7748245, “Identification and Optimization of a Series of 8-Hydroxy Naphthyridines with Potent In Vitro Antileishmanial Activity: Initial SAR and Assessment of In Vivo Activity” (Journal of Medicinal Chemistry, 2020)
